The structures appear in SMILES notation.

The nature of data set [1]: Induction of apoptosis in mouse BaF3 cells harboring EGFR 19del/T790M/C797S mutant assessed as early apoptotic cells at 30 nM incubated for 48 hrs by Annexin V-FITC/PI staining based flow cytometric analysis (reference value: 0.36 %). The format is functional. For orientation: In flow cytometry, cells or beads pass a laser one at a time.
In data set [2] the test system is BaF3. As to the kind of experiment: cells. As to conditions: Mus musculus, BaF3, 72 h.
The nature of data set [3]: Induction of apoptosis in mouse BaF3 cells harboring EGFR 19del/T790M/C797S mutant assessed as late apoptotic cells at 300 nM incubated for 48 hrs by Annexin V-FITC/PI staining based flow cytometric analysis (reference value: 1.47 %). The format is functional.
Data set [4] is described as follows: Induction of apoptosis in mouse BaF3 cells harboring EGFR 19del/T790M/C797S mutant assessed as late apoptotic cells at 1000 nM incubated for 48 hrs by Annexin V-FITC/PI staining based flow cytometric analysis (reference value: 1.47 %). The class given is functional.
Data set [5] is described as follows: Induction of apoptosis in mouse BaF3 cells harboring EGFR 19del/T790M/C797S mutant assessed as late apoptotic cells at 100 nM incubated for 48 hrs by Annexin V-FITC/PI staining based flow cytometric analysis (reference value: 1.47 %). The class given is functional.
Data set [6] is described as follows: Induction of apoptosis in mouse BaF3 cells harboring EGFR 19del/T790M/C797S mutant assessed as early apoptotic cells at 1000 nM incubated for 48 hrs by Annexin V-FITC/PI staining based flow cytometric analysis (reference value: 0.36 %). The format is functional.
In data set [7] the test system is BaF3. As to the kind of experiment: Antitumor activity against mouse BaF3 cells harboring 19del/T790M/C797S mutant implanted in female BALB/c nu/nu mouse assessed as tumor growth inhibition at 20 mg/kg, po administered once daily for 9 days relative to control. The format is functional. Conditions: BaF3, 216 h, time 9 day, read-out: TGI.
The subject of data set [8] is BaF3. Description: cells. Conditions: Mus musculus, BaF3, 72 h. This is another data set of the same source.
The nature of a further data set: cells. Conditions: Homo sapiens, PC9-OR, 72 h.
Data set [9] is described as follows: Induction of apoptosis in mouse BaF3 cells harboring EGFR 19del/T790M/C797S mutant assessed as early apoptotic cells at 100 nM incubated for 48 hrs by Annexin V-FITC/PI staining based flow cytometric analysis (reference value: 0.36 %). The class given is functional.
Data set [10] is described as follows: Induction of apoptosis in mouse BaF3 cells harboring EGFR 19del/T790M/C797S mutant assessed as early apoptotic cells at 300 nM incubated for 48 hrs by Annexin V-FITC/PI staining based flow cytometric analysis (reference value: 0.36 %). The format is functional.
The nature of data set [11]: Antiproliferative activity against mouse BaF3 cells assessed as inhibition of cell proliferation incubated for 72 hrs by CCK-8 assay. The class given is toxicity, cell-based. On the technique in general: Tetrazolium dyes change colour on reduction, which living cells bring about.
In a further data set the test system is A-431. Description: cells. As to conditions: Homo sapiens, A-431, 72 h.
A short description of data set [12]: Induction of apoptosis in mouse BaF3 cells harboring EGFR 19del/T790M/C797S mutant assessed as late apoptotic cells at 30 nM incubated for 48 hrs by Annexin V-FITC/PI staining based flow cytometric analysis (reference value: 1.47 %). The format is functional.
Data set [13] addresses Epidermal growth factor receptor (Homo sapiens, UniProt P00533, L858R/T790M). Description: Inhibition of recombinant N-terminal GST-tagged human EGFR T790M/L858R mutant (696 to end residues) extracted from baculovirus infect Sf21 insect cells incubated for 1 hrs by spectrophotometric analysis.
Data set [14] has as its target Epidermal growth factor receptor (Homo sapiens, UniProt P00533). As to the kind of experiment: Inhibition of recombinant wildtype N-terminal GST-tagged human EGFR kinase domain (696 to end residues) extracted from baculovirus infect Sf21 insect cells incubated for 1 hrs by spectrophotometric analysis.
In data set [15] the target is Epidermal growth factor receptor (Homo sapiens, UniProt P00533, C797S/EX19DEL/T790M). As to the kind of experiment: Inhibition of recombinant N-terminal GST-tagged human EGFR 19del/T790M/C797S mutant (668 to end residues) extracted from Sf9 insect cells incubated for 1 hrs by spectrophotometric analysis. The format is cell-free.
Chain of Epidermal growth factor receptor (Homo sapiens, UniProt P00533, C797S/EX19DEL/T790M) (P00533 whole entry, looked up, stated change not applied, the tested form may be a part): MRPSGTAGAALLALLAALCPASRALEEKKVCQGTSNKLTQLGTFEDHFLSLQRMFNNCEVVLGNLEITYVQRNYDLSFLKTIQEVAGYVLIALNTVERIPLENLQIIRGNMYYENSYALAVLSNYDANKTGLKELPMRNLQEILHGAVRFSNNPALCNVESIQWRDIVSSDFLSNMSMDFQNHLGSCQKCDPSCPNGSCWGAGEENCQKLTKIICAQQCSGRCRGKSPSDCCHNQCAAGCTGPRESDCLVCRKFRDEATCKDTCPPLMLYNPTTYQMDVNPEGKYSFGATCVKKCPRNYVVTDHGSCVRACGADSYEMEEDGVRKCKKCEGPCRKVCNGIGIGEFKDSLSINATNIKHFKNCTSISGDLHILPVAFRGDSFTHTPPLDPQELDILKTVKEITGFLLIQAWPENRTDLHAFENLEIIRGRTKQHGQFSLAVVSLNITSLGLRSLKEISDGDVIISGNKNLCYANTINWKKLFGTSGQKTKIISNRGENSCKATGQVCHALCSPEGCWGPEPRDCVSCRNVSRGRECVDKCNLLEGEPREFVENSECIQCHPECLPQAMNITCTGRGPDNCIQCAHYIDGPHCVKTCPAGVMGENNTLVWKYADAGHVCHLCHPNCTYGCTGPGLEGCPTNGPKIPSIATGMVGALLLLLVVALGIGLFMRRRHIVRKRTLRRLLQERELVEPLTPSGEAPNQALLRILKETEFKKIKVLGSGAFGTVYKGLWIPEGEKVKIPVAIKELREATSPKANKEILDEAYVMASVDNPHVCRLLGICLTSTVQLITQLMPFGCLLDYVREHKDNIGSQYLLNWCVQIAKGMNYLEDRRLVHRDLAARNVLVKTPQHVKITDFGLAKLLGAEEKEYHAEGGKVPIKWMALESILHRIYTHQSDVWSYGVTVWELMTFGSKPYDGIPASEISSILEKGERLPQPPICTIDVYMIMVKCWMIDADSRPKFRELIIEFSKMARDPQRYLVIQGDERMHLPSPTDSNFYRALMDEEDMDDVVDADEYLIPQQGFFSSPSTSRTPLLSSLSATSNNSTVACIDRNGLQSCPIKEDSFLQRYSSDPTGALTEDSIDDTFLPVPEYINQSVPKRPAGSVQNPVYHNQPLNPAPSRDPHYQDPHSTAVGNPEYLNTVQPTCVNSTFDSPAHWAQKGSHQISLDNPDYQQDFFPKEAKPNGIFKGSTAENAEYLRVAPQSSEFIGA
Data set [16] deals with Epidermal growth factor receptor (Homo sapiens, UniProt P00533, C797S/L858R/T790M). As to the kind of experiment: Inhibition of recombinant C-terminal His-tagged/N-terminal GST-tagged human EGFR T790M/C797S/L858R mutant (668 to 1210 residues) extracted from baculovirus infected Sf9 insect cells incubated for 1 hrs by spectrophotometric analysis.
Chain of Epidermal growth factor receptor (Homo sapiens, UniProt P00533, C797S/L858R/T790M) (P00533 25-1210 T790M/C797S/L858R limits assumed): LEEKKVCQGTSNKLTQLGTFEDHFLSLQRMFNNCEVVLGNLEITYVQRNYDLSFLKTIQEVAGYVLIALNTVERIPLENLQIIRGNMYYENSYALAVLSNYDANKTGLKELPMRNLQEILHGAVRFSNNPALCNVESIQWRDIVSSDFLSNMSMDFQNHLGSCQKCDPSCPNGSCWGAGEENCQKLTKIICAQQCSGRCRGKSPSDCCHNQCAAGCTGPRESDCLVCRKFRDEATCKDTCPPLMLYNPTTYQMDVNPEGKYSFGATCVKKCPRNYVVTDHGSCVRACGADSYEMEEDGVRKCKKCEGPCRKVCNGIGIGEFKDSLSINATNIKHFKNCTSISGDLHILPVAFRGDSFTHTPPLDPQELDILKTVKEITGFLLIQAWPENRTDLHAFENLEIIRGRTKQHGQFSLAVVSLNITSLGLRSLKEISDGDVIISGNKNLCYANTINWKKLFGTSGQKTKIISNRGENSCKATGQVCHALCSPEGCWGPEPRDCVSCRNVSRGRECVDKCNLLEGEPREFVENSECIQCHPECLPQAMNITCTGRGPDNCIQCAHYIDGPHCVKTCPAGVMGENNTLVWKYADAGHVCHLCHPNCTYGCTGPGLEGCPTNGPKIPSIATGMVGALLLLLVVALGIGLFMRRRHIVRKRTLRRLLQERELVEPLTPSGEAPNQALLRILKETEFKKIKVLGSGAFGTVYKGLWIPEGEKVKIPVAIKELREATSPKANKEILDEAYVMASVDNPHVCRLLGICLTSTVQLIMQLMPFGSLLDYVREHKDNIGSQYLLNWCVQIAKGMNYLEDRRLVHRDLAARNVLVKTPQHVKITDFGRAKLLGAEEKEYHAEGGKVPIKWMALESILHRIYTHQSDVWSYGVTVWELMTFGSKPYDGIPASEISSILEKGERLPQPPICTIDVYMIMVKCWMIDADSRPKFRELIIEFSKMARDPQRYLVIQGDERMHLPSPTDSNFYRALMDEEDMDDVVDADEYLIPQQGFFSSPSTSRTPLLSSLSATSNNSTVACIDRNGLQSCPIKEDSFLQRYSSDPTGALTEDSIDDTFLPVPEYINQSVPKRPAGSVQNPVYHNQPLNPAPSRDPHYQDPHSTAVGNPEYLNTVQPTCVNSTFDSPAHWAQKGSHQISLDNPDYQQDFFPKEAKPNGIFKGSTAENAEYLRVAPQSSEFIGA
The nature of data set [17]: Induction of apoptosis in mouse BaF3 cells harboring EGFR 19del/T790M/C797S mutant assessed as early apoptotic cells at 1000 nM incubated for 48 hrs by Annexin V-FITC/PI staining based flow cytometric analysis (reference value: 2.48 %). The format is functional.
Data set [18] in a line: Induction of apoptosis in mouse BaF3 cells harboring EGFR 19del/T790M/C797S mutant assessed as late apoptotic cells at 300 nM incubated for 48 hrs by Annexin V-FITC/PI staining based flow cytometric analysis (reference value: 1.75 %). The class given is functional.
Data set [19] is described as follows: Induction of apoptosis in mouse BaF3 cells harboring EGFR 19del/T790M/C797S mutant assessed as early apoptotic cells at 300 nM incubated for 48 hrs by Annexin V-FITC/PI staining based flow cytometric analysis (reference value: 2.48 %). The format is functional.
The nature of data set [20]: Induction of apoptosis in mouse BaF3 cells harboring EGFR 19del/T790M/C797S mutant assessed as early apoptotic cells at 30 nM incubated for 48 hrs by Annexin V-FITC/PI staining based flow cytometric analysis (reference value: 2.48 %). The format is functional.
Data set [21] can be described thus: Induction of apoptosis in mouse BaF3 cells harboring EGFR 19del/T790M/C797S mutant assessed as late apoptotic cells at 1000 nM incubated for 48 hrs by Annexin V-FITC/PI staining based flow cytometric analysis (reference value: 1.75 %). The class given is functional.
Data set [22] can be described thus: Induction of apoptosis in mouse BaF3 cells harboring EGFR 19del/T790M/C797S mutant assessed as late apoptotic cells at 100 nM incubated for 48 hrs by Annexin V-FITC/PI staining based flow cytometric analysis (reference value: 1.75 %). The format is functional.
A short description of data set [23]: Induction of apoptosis in mouse BaF3 cells harboring EGFR 19del/T790M/C797S mutant assessed as early apoptotic cells at 100 nM incubated for 48 hrs by Annexin V-FITC/PI staining based flow cytometric analysis (reference value: 2.48 %). The class given is functional.
Data set [24] is described as follows: Induction of apoptosis in mouse BaF3 cells harboring EGFR 19del/T790M/C797S mutant assessed as late apoptotic cells at 30 nM incubated for 48 hrs by Annexin V-FITC/PI staining based flow cytometric analysis (reference value: 1.75 %). The class given is functional.

Chain of Epidermal growth factor receptor (Homo sapiens, UniProt P00533) (P00533 whole entry, the tested form may be a part): as the sequence (P00533 whole entry, looked up, stated change not applied, the tested form may be a part) above
Chain of Epidermal growth factor receptor (Homo sapiens, UniProt P00533, L858R/T790M) (P00533 25-1210 T790M/L858R limits assumed): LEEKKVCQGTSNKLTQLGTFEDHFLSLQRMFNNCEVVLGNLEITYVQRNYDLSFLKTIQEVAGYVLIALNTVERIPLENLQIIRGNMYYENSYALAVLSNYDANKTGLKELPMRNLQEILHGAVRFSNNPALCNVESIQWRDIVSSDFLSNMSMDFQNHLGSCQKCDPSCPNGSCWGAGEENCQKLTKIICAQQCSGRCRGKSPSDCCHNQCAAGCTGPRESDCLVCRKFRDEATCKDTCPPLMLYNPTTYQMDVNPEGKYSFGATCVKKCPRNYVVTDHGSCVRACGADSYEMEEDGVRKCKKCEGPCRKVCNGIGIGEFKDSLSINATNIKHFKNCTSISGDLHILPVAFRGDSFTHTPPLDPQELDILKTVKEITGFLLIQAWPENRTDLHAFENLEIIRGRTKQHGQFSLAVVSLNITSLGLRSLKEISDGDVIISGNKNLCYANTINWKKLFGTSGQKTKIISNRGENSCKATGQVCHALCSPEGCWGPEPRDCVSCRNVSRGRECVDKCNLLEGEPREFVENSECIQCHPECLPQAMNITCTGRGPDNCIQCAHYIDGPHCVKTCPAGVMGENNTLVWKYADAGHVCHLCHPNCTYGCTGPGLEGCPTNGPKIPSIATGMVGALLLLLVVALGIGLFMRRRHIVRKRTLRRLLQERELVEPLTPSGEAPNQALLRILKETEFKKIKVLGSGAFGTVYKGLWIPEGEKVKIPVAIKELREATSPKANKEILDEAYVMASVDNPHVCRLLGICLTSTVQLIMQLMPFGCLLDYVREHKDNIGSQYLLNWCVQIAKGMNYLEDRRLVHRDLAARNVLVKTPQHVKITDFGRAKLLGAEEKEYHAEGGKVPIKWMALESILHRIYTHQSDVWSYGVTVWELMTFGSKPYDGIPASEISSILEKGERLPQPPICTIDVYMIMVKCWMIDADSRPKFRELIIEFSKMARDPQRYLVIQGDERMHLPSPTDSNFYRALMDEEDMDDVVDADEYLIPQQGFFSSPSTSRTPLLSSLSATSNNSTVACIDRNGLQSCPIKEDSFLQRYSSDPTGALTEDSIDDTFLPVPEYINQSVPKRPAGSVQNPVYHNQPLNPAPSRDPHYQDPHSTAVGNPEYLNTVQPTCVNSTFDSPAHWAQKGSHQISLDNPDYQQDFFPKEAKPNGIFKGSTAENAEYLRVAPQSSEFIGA
Description for A-431: Antiproliferative activity against human A-431 cells harboring wildtype EGFR assessed as inhibition of cell proliferation measured after 72 hrs by SRB assay

The term IC50 denotes the point on the concentration scale where inhibition reaches its midpoint. Turning to `COc1cc(N2CCC(N3CCN(C)CC3)CC2)c(C)cc1Nc1ncc(Br)c(Nc2ccc3nccnc3c2P(C)(C)=O)n1`, the Activity in data set [1] was 2.39%; in [3], 18.4%; in data set [4], 22.63%; in data set [5] it was 3.84%; in data set [6] it was 64.67%; in data set [9], 6.67%. In addition, the Activity worked out at 50.63% in [10] and 1.98% in [12]. Besides, the IC50 came to 100 nM in the data set with BaF3 [2], 176 nM with BaF3 [8], 94 nM in the data set “cells” and 302 nM in the data set on A-431. The inhibition in vivo at 20 mg/kg with BaF3 [7] is 78.4%. Further, in data set [11], the IC50 at 72 h was determined as 2040 nM.
Regarding `COc1cc(N2CCC(N3CCN(C)CC3)CC2)c2cc1Nc1ncc(C)c(n1)Nc1ccc(cc1P(C)(C)=O)OCCCn1cc-2cn1`, the 50% inhibitory concentration (IC50) was 41 nM in the data set with BaF3 [2], 313 nM with BaF3 [8], 38 nM in “cells” and 158 nM with A-431. For the same compound, the IC50 at 72 h in data set [11] stood at 2770 nM.
For `COc1cc(N(C)CCN(C)C)c2cc1Nc1ncc(C)c(n1)Nc1ccc(cc1P(C)(C)=O)OCCCCC(=O)N2`, in that order: greater than 10000 nM, greater than 10000 nM, 2330 nM, 4370 nM and greater than 10000 nM.
Regarding `COc1cc(N(C)CCN(C)C)c2cc1Nc1nccc(n1)-c1cnn(c1)CCCCC(=O)N2`, the IC50 in data set [13], in data set [14] and in data set [15] was greater than 1000 nM each time.
Turning to `COc1cc(N2CCN(C)CC2)c2cc1Nc1ncc(C)c(n1)Nc1ccc(cc1P(C)(C)=O)OCCCn1cc-2cn1`, the IC50 is less than 16 nM in the data set on BaF3 [2], 146 nM with BaF3 [8], 62 nM in the data set “cells” and 161 nM in the data set on A-431. Besides, in data set [11], the 50% inhibitory concentration (IC50) at 72 h was 2250 nM.
As to `C=CC(=O)Nc1cc(Nc2nccc(-c3cn(C)c4ccccc34)n2)c(OC)cc1N(C)CCN(C)C` [OSIMERTINIB], the IC50 with BaF3 [2] was determined as 1550 nM; in the data set with BaF3 [8], 1760 nM; in the data set “cells”, 2600 nM; with A-431 it was […].
For `COc1cc(N(C)CCN(C)C)c2cc1Nc1nccc(n1)-c1cn(c3cc(P(C)(C)=O)ccc13)CCCCC(=O)N2`, the IC50 in data set [13], in data set [14] and in data set [15] was greater than 1000 nM each time.
Take `COc1cc(N(C)CCN(C)C)c2cc1Nc1ncc(C)c(n1)Nc1ccc(cc1P(C)(C)=O)OCCCn1cc-2cn1`: the IC50 in the data set with BaF3 [2] was 174 nM; in the data set on BaF3 [8] it was 394 nM; in “cells”, 104 nM; in the data set on A-431 it was greater than 10000 nM. For the same compound, the IC50 at 72 h in data set [11] was greater than 10000 nM.
As to `COc1cc(N(C)CCN(C)C)c2cc1Nc1ncc(C(=O)OC(C)C)c(n1)Nc1ccc(cc1P(C)(C)=O)OCCCCC(=O)N2`, the IC50 in [13], in [14], in data set [15] and in data set [16] was greater than 1000 nM in each case.
As to `COc1cc(N(C)CCN(C)C)c2cc1Nc1ncc(C)c(n1)Nc1ccc(cc1P(C)(C)=O)OCCCCCC2`, the IC50 with BaF3 [2] is 1730 nM; in the data set on BaF3 [8], 2090 nM; in the data set “cells”, 1000 nM; in the data set with A-431, greater than 10000 nM. Further, in data set [11], the half-inhibitory concentration (IC50) at 72 h was greater than 10000 nM.
As to `COc1cc(N(C)CCN(C)C)c2cc1Nc1nccc(n1)-c1cc(C#N)n(c1)CCCCC(=O)N2`, the IC50 in [13], in data set [14] and in data set [15] was greater than 1000 nM in each case.
`COc1cc(N2CCC(N3CCN(C)CC3)CC2)ccc1Nc1ncc(Cl)c(Nc2ccccc2P(C)(C)=O)n1` [BRIGATINIB]: the Activity in data set [17] is given as 32.44%; in [18], 1.86%; in [19], 4.25%; in data set [20] it was 2.4%; in data set [21], 6.87%; in [22] it was 1.3%. Also, the Activity in data set [23] was 3.51%; in [24], 1.21%. The IC50 in the data set on BaF3 [2] came out at 382 nM; with BaF3 [8], 392 nM; in “cells”, 314 nM; in the data set with A-431, 436 nM. The IC50 at 72 h in data set [11] came out at 2380 nM.

The values are drawn from ChEMBL document CHEMBL6127132, “Design, Synthesis, and Biological Evaluation of Novel Diaminopyrimidine Macrocycles as Fourth Generation Reversible EGFR Inhibitors That Overcome Clinical Resistance to Osimertinib Mediated by C797S Mutation” (J Med Chem, 2024).
